Experimental findings from publication PMC10794345, “Analysis of vascular disruption in zebrafish embryos as an endpoint to predict developmental toxicity” (Archives of Toxicology, 2023) are described below.

Structures are written as SMILES. A value given as a limit tells only on which side of the number the result lay.

In assay [1] the test system is zebrafish embryos, transgenic line Tg(kdr:EGFP). Put plainly: Number of ISVs by fluorescence imaging in Tg(kdr:EGFP) zebrafish embryos. The assay is classed as in vivo, zebrafish (D. rerio). The note with it: exposure 24–96 hpf, 0.31–10 µM. As to the method: (§1) Fertilized and normally developed embryos were selected according to Kimmel et al. ([1995]) with a dissection microscope (Olympus SZx7-ILLT) at 1 hpf. Depending on experiment, exposure was started within 2–3 h post-fertilization (16–128 cell stages) or at 24 hpf. Exposure was conducted in rectangular 96-well microplates (Clear Polystyrene, flat bottom, Uniplate, Whatman, GE Healthcare) covered by a lid with a test volume of 400 µL of exposure media. For each replicate one embryo per well and 16 wells per concentration were assessed. Experiments were performed with at least two replicates on independent days and breeding.
To determine the number of ISVs in the trunk region, high-resolution images of 96 hpf-old zebrafish embryos were recorded using a Leica DM6B-Z microscope (Leica, Wetzlar, Germany) attached to the VAST imaging system, and a camera (Leica DFC9000 sCMOS, objective: HC APO L U-V-I 20x/0.50 WATER UV). A series of 20 images with a frame rate of 20 images per second and a 2 × 2 pixel binning was recorded in autofocus mode for each embryo. For the Tg(kdr:EGFP) strain, one additional fluorescence image was obtained using a fluorescent filter set (emission wavelength 540 nm, excitation filter BP 450–490) and a camera exposure time of 129 ms and a 2. × 2 binning in autofocus mode. […]

For assay [2] the test system is unchanged. Put plainly: Number of ISVs by video subtraction in Tg(kdr:EGFP) zebrafish embryos. The format is in vivo, zebrafish (D. rerio). As to the method: as §1
To determine the number of ISVs in the trunk region, high-resolution images of 96 hpf-old zebrafish embryos were recorded using a Leica DM6B-Z microscope (Leica, Wetzlar, Germany) attached to the VAST imaging system, and a camera (Leica DFC9000 sCMOS, objective: HC APO L U-V-I 20x/0.50 WATER UV). A series of 20 images with a frame rate of 20 images per second and a 2 × 2 pixel binning was recorded in autofocus mode for each embryo. For the Tg(kdr:EGFP) strain, one additional fluorescence image was obtained using a fluorescent filter set (emission wavelength 540 nm, excitation filter BP 450–490) and a camera exposure time of 129 ms and a 2. × 2 binning in autofocus mode.
A series of MATLAB scripts (Supplement File ‘Workflow 3.m’ and ‘Workflow 4.m’) was used to convert the image series into a video and to visualize the blood vessel by applying a video subtraction approach (Figure SI1). Briefly, each video frame was subtracted from the average image of the whole image sequence and converted to a binary image by applying a Gaussian blur (σ = 5) and a threshold of 0.025 to obtain optimal contrast in binary images. Subsequently, the sum of all binary images was calculated. Due to movement of the blood cells the subtraction approach removed all parts from the image which were not moving resulting in an image of the blood vessels. This binary image of the blood vessel network in the zebrafish embryo tail was then processed with the FishInspector annotation software (version 1.70). […] The number of ISVs was obtained by application of a KNIME workflow to FishInspector annotation files. Subsequently concentration–response analysis was conducted using a KNIME workflow. The coefficient of variation (CV) of controls was calculated for both the subtraction and the fluorescence-based method by dividing the standard deviation of individual embryos with the control mean: CVControl=SD/Mean.
Concentration–response curves were fitted for lethality, heart rate, morphological features as previously described (Teixidó et al. [2019], [2022]). The assessment of lethality and morphological features was based on the percentage of embryos affected. Therefore, morphological endpoints were dichotomized, i.e. feature metrics were converted to the percentage of embryos deviating from controls. An embryo was considered to deviate when it was outside 1.5-fold of the standard deviation range of the mean of the control group. The control mean was determined by pooling control embryos across all experiments (n = 160) (available at git.ufz.de). For heart rate and angiogenesis (number of ISVs) the analysis was based on normalized values, i.e. for each experiment the values of the treatment were divided by the control value. The experiments were designed to calculate effect concentrations based on modelled curve fits. […]

As a reminder, the EC50 is the concentration that produces a half-maximal response. Consider `CN(C)c1ccc(C=C2C(=O)Nc3ccccc32)cc1` [SU4312], for which the “EC10 (IC10) number of ISVs, fluorescent image” value in assay [1] was 1.17 µM. For the same compound, the EC50 in assay [1] (read-out: EC50 number of ISVs, fluorescent image) is more than 10 µM; in assay [2] (Tg(kdr:EGFP), exposure 24–96 hpf, 0.31–10 µM, read-out: EC50 (IC50) number of ISVs, subtraction image), 2.98 µM; in assay [2] (arterial ISVs only, subtraction method, ± 95% confidence where given, read-out: aISVs EC50) it was 2.58 ± 3.12 µM; in assay [2] (subtraction method, ± 95% confidence where given, read-out: all ISVs EC50 (combined assessment)), 2.98 µM; in assay [2] (venous ISVs only, subtraction method, ± 95% confidence where given, read-out: vISVs EC50) it was 0.75 ± 0.17 µM. The “EC10 (IC10) number of ISVs, subtraction image” value in assay [2] (Tg(kdr:EGFP), exposure 24–96 hpf, 0.31–10 µM) is recorded as 0.72 µM.
